Test results taken from ChEMBL document CHEMBL1138036, “Simplified cyclic analogues of bastadin-5. Structure-activity relationships for modulation of the RyR1/FKBP12 Ca2+ channel complex” (J Med Chem, 2006).

Experiments:
[1] = biological target: RyR1/FKBP12 (Oryctolagus cuniculus); test: Agonist like activity at skeletal junction sarcoplasmic reticulum RyR1/FKBP12 complex assessed as increase in [3H]ryanodine binding
[2] = biological target: RyR1/FKBP12 (Oryctolagus cuniculus); test: Antagonist like activity at skeletal junction sarcoplasmic reticulum RyR1/FKBP12 complex assessed as decrease in [3H]ryanodine binding

| Structure (SMILES) | EC50 [1] [µM] | IC50 [2] [µM] |
| --- | --- | --- |
| O=C1CCc2ccc(c([N+](=O)[O-])c2)Oc2cc(cc(Br)c2O)CCN1 | 20.9 | – |
| [N-]=[N+]=Nc1cc2ccc1Oc1cc(cc(Br)c1O)CCNC(=O)CCNC(=O)CC2 | 20 | – |
| O=C1CCNC(=O)CCc2cc(Br)c(cc2Br)Oc2cc(cc(Br)c2O)CCN1 | – | 47 |
| Nc1cc2ccc1Oc1cc(cc(Br)c1O)CCNC(=O)CC2 | 33 | – |
| O=C1CCNC(=O)CCc2ccc(c([N+](=O)[O-])c2)Oc2cc(cc(Br)c2O)CCN1 | 24 | – |
| O=C1CCc2ccc(c(I)c2)Oc2cc(cc(Br)c2O)CCN1 | 28.6 | – |
| O=C1CCc2ccc(cc2)Oc2cc(cc(Br)c2O)CCN1 | > 100 | – |
| Nc1cc2ccc1Oc1cc(cc(Br)c1O)CCNC(=O)CCNC(=O)CC2 | 21 | – |
| [N-]=[N+]=Nc1ccc(I)cc1C(=O)NCCCC[C@H]1CC(=O)NCCc2cc(Br)c(O)c(c2)Oc2ccc(cc2Br)CCC(=O)N1 | > 100 | – |
| [N-]=[N+]=Nc1ccc(I)cc1C(=O)NCCCC[C@H]1CC(=O)NCCc2cc(Br)c(O)c(c2)Oc2cc(Br)c(cc2Br)CCC(=O)N1 | 6.5 | – |
| O=C1CCc2cc(Br)c(cc2Br)Oc2cc(cc(Br)c2O)CCN1 | > 100 | – |
| O=C1CCc2ccc(c(Br)c2)Oc2cc(cc(Br)c2O)CCN1 | 10.9 | – |
| [N-]=[N+]=Nc1cc2ccc1Oc1cc(cc(Br)c1O)CCNC(=O)CC2 | – | 63 |
| COC(=O)c1cc(I)ccc1N=[N+]=[N-] | > 100 | – |
